Laboratory results: paper PMC5059578, “Construction of a Turn Off-On-Off Fluorescent System Based on Competitive Coordination of Cu^2+ between 6,7-Dihydroxycoumarin and Pyrophosphate Ion for Sensitive Assay of Pyrophosphatase Activity” (Journal of Analytical Methods in Chemistry, 2016)

Target: T1, Baker's yeast inorganic pyrophosphatase (PPase, EC 3.6.1.1) (Saccharomyces cerevisiae, UniProt P00817)
T1 construct: gene IPP1
Test: Fluorescent Cu2+-DHC-PPi displacement assay of PPase activity after preincubation with NaF
Assay type: biochemical

T1 sequence (P00817 2-287): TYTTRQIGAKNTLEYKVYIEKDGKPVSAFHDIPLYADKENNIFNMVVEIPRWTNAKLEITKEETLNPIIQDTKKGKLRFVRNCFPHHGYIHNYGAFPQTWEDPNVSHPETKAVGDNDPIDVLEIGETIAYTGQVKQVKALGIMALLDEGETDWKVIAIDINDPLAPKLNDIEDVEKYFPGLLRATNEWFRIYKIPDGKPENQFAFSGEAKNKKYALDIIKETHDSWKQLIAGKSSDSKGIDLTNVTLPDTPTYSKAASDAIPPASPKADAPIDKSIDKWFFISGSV

Q: [F-].[Na+] [NaF] was tested. Which IC50 did it give?
A: ~18.2 µM
